The record followed here is patent US20120253470A1, “COMPOSITIONS FOR BONE TISSUE REPAIR AND USES THEREOF” (PRESIDENT AND FELLOWS OF HARVARD COLLEGE, priority 2011, published 2012).

The test system of one experiment is segmental femur defect. Nature of the experiment: Repair of long bone (segmental femur) defect in mice. The class given is in vivo, C57/BI/6 wild-type mice. As for the experimental part: (§1) The model animals used in this investigation were 10 week-old, skeletally mature, male C57/BI/6 wild-type mice. Mice are anesthetized by intramuscular injection with ketamine (7.5 mg/100 g body weight and xylazine (5-10 mg/kg body weight). The skin is shaved with an electric device and then scrubbed with a povidone-iodine scrub (e.g., Betadine®) and 70% alcohol, taking care to scrub from the center of the site toward the periphery. The site is then rinsed with 70% alcohol. At least three alternating preparations of germicidal scrub and rinse are performed. Finally, the area is draped with sterile drapes, which not only help to prevent contaminants from entering the surgical field, but also provide a sterile area on which to lay sterile instruments during surgery.
Full-thickness flaps are utilized in order to gain access to the femur. A roughly 5 mm length segmental femur defect is created on the C57/BI/6 mice. Once the defect has been created all mice received cell-free grafts. Control mice received no additional treatment, while the second group of mice received treatment with prom-1 #237. Soft tissues are closed with sutures. After the surgery, the animals are monitored until fully alert and monitoring continues thereafter for any issues related to discomfort, pain or infection. […] Medication to control pain is also delivered right after surgery and if detected subsequently. […] The animal is monitored continuously until it regains sternal recumbence and is capable of holding its head up, and is returned to its regular cage only when it is alert, mobile and breathing normally. […]
Post-surgical observations include a minimum daily observation, including weekends and holidays, of the condition of the animal and the surgical site. […] Pain/distress is monitored by monitoring the physiological parameters and behavioral responses although distress is more difficult to define and identify than pain. […] The animals are evaluated at day 14 after the creation of the defect to determine the extent of repair and regeneration.

Experiment [1] deals with craniotomy defect of the calvaria. Nature of the experiment: Repair of calvarial bone defect in mice. The class given is in vivo, C57/BI/6 wild-type mice. Particulars: prom-1 #237 added to composition containing FDBA. As to the method: as §1, with “One of the most common models used to test bone repair methods and compositions is defects in the calvarial bone in a model organism. Mice, rats, and rabbits are all frequently used in this model of flat bone repair. The model” for “The model”, “weight). The calvaria skin is” for “weight). The skin is”
Full-thickness flaps are utilized in order to gain access to the calvaria. […] After the surgery, the animals are monitored until fully alert and monitoring continues thereafter for any issues related to discomfort, pain or infection. […] Medication to control pain is also delivered right after surgery and if detected subsequently. […] The animal is monitored continuously until it regains sternal recumbence and is capable of holding its head up, and is returned to its regular cage only when it is alert, mobile and breathing normally. […]
Post-surgical observations include a minimum daily observation, including weekends and holidays, of the condition of the animal and the surgical site. […] Pain/distress is monitored by monitoring the physiological parameters and behavioral responses although distress is more difficult to define and identify than pain. […] The animals are evaluated at day 56 after the creation of the defect to determine the extent of repair and regeneration.

[2] abbreviates: femur defect with cell-free graft, day 14.

With “DRVQRQTTTVVA (SEQ ID NO: 35) [prom-1 #237]”, in the experiment with segmental femur defect (setting [2]), the “ability of existing mouse cells to colonize the scaffold material and repair a large defect in the long bone” value was “greatly increased”; the “total extent of recovery” value was “markedly improved”. Moreover, the “new bone growth / callus formation at the defect (FIG. 1B)” value in the experiment on segmental femur defect (roughly 5 mm segmental femur defect, given in addition to cell-free graft, evaluated at day 14, versus graft only) was “significant callus formation”. For the same sequence, in experiment [1], the time to recovery entry was “significantly reduced”. Further, in experiment [1] (day 56), the “ability of existing mouse cells to colonize the FDBA scaffold material and repair a large defect in the calvarial flat bone” value was “greatly increases”; the “total extent of recovery” value was “markedly improved”.
